{"source": "patent US10874743B2", "about": "“IRAK degraders and uses thereof” (Kymera Therapeutics, Inc., priority 2017, dated 2020)"}
{"molecular_target": "T1, IRAK4 (Homo sapiens, UniProt Q9NWZ3)", "T1 sequence (Q9NWZ3 1-460)": "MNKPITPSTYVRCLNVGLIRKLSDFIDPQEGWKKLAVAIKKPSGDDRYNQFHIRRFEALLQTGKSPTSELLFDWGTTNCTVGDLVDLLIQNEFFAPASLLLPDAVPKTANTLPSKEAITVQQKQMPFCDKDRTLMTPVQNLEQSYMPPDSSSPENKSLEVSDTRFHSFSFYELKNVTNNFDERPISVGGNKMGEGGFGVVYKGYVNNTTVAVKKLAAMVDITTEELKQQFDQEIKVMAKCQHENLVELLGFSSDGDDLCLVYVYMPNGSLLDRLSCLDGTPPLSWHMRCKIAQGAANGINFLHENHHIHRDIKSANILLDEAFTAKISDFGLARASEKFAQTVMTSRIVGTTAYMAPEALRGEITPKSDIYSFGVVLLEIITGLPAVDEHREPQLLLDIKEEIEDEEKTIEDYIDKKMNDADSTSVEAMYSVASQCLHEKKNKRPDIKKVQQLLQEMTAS", "assay": "THP-1 degradation assay (western blot, % IRAK4 degraded after 24 hours)", "assay_type": "cell-based", "parameters": "endogenous in cells", "settings": "THP-1 cells"}
{"molecule": "COc1cc2c(cc1OCCOCCOCCOCCOCCOCC(=O)N[C@H](C(=O)N1C[C@H](O)C[C@H]1C(=O)NCc1ccc(-c3scnc3C)cc1)C(C)(C)C)ncc1c3ccc(C#N)cc3[nH]c21", "note": "[I-203]", "THP-1 24 h % IRAK4 Degradation": "B (>20-50% degradation)"}
{"molecular_target": "T1, IRAK4", "assay": "PBMC degradation assay (western blot, % IRAK4 degraded after 4 hours)", "assay_type": "cell-based", "settings": "human PBMCs", "method": "Protocol summary of PBMC degradation studies from compound treatment through quantitation.\nPBMC culture medium: Human peripheral blood mononuclear cells (PBMCs): RPMI+10% FBS (Heat-inactivated)+1% P/S.\nCells were cultured at a minimum of 2.5×10^6 c/mL. • PBMCs were incubated @ 37° C./5% CO2 and allowed to rest overnight. • Following overnight recovery, a cell count/viability assessment by trypan blue exclusion was performed. Cells densities were adjusted back to 2.5×10^6 c/mL (proceed with plating only if viability >80%). • In a 6 well plate, 2.0 mL of cells were added to each well for a minimum of 5×10^6 CT per treatment condition. Compounds dilutions were prepared from 20 mM stock and were added at a final 1000× dilution (0.1% DMSO concentration). • At the end of treatment, cells were harvested and spun @ 1800 rpm for 5 min. 1×PBS wash and spun again @ 1800 rpm for 5 min. Cell pellets were frozen and stored at −80° C. until further processing. • Lysates were generated by resuspending in lysis buffer. Protein quantification was performed with a BCA kit. • 20 μg of protein were loaded per lane and run on a 26-well 4-12% Bis-Tris SDS-page gel. • Transfers were performed on PVDF membranes using the BioRad Mixed MW turbo program for 7 min. • Membranes were blocked for one hour on a rocker at room temperature. • Primary antibodies were incubated overnight at 4° C. on a rocker. • Membranes were washed 3×TBST, 5 min each. • Secondaries were added and incubated for one hour on a rocker at room temperature. • Membranes were washed 3×TBST, 5 min each and rinsed well with deionized H2O. Membranes were scanned using the Licor Odessey CLx and bands were quantified using Image Studio Lite Version 5.2 software.\nPBMC results at 4 hours. The letter codes indicate the percentage of IRAK4 degraded after 4 hours: A (>50% degradation), B (>20-50% degradation) and C (<20% degradation)"}
{"molecule": "NC(=O)c1nn(-c2ccc(C(=O)NCCOCCOCCOCCOCCNc3cccc4c3C(=O)N(C3CCC(=O)NC3=O)C4=O)cc2)cc1NC(=O)c1coc(-c2ccnc(NCC(F)(F)F)c2)n1", "note": "(stereo not shown) [I-53]", "PBMC % IRAK4 Degradation": "A (>50% degradation)"}
{"molecule": "NC(=O)c1nn(-c2ccc(C(=O)NCCCCCCCCCCCNC(=O)COc3cccc4c3C(=O)N(C3CCC(=O)NC3=O)C4=O)cc2)cc1NC(=O)c1coc(-c2ccnc(NCC(F)(F)F)c2)n1", "note": "(stereo not shown) [I-104]", "PBMC % IRAK4 Degradation": "C (<20% degradation)"}
{"molecule": "NC(=O)c1nn(-c2ccc(C(=O)NCCCCCNC(=O)COc3cccc4c3C(=O)N(C3CCC(=O)NC3=O)C4=O)cc2)cc1NC(=O)c1coc(-c2ccnc(NCC(F)(F)F)c2)n1", "note": "(stereo not shown) [I-106, N-[3-carbamoyl-1-[4-[5-[[2-[2-(2,6-dioxo-3-piperidyl)-1,3-dioxo-isoindolin-4-yl]oxyacetyl]amino]pentylcarbamoyl]phenyl]pyrazol-4-yl]-2-[2-(2,2,2-trifluoroethylamino)-4-pyridyl]oxazole-4-carboxamide]", "PBMC % IRAK4 Degradation": "A (>50% degradation)"}
{"molecule": "NC(=O)c1nn(-c2ccc(C(=O)NCCOCCOCCOCCNC(=O)COc3cccc4c3C(=O)N(C3CCC(=O)NC3=O)C4=O)cc2)cc1NC(=O)c1coc(-c2ccnc(NCC(F)(F)F)c2)n1", "note": "(stereo not shown) [I-108]", "PBMC % IRAK4 Degradation": "C (<20% degradation)"}
{"molecule": "NC(=O)c1nn(-c2ccc(C(=O)NCCCCCCCCNC(=O)COc3cccc4c3C(=O)N(C3CCC(=O)NC3=O)C4=O)cc2)cc1NC(=O)c1coc(-c2ccnc(NCC(F)(F)F)c2)n1", "note": "(stereo not shown) [I-109]", "PBMC % IRAK4 Degradation": "B (>20-50% degradation)"}
{"molecule": "NC(=O)c1nn(-c2ccc(C(=O)NCCOCCNC(=O)COc3cccc4c3C(=O)N(C3CCC(=O)NC3=O)C4=O)cc2)cc1NC(=O)c1coc(-c2ccnc(NCC(F)(F)F)c2)n1", "note": "(stereo not shown) [I-110]", "PBMC % IRAK4 Degradation": "A (>50% degradation)"}
{"molecule": "NC(=O)c1nn(-c2ccc(C(=O)NCCCCNC(=O)COc3cccc4c3C(=O)N(C3CCC(=O)NC3=O)C4=O)cc2)cc1NC(=O)c1coc(-c2ccnc(NCC(F)(F)F)c2)n1", "note": "(stereo not shown) [I-111]", "PBMC % IRAK4 Degradation": "B (>20-50% degradation)"}
{"molecule": "NC(=O)c1nn(-c2ccc(C(=O)NCCCNC(=O)COc3cccc4c3C(=O)N(C3CCC(=O)NC3=O)C4=O)cc2)cc1NC(=O)c1coc(-c2ccnc(NCC(F)(F)F)c2)n1", "note": "(stereo not shown) [I-112]", "PBMC % IRAK4 Degradation": "A (>50% degradation)"}
{"molecule": "NC(=O)c1nn(-c2ccc(C(=O)NCCOCCCCCOCCNC(=O)COc3cccc4c3C(=O)N(C3CCC(=O)NC3=O)C4=O)cc2)cc1NC(=O)c1coc(-c2ccnc(NCC(F)(F)F)c2)n1", "note": "(stereo not shown) [I-116, N-(3-carbamoyl-1-(4-((2-((5-(2-(2-((2-(2,6-dioxopiperidin-3-yl)-1,3-dioxoisoindolin-4-yl)oxy)acetamido)ethoxy)pentyl)oxy)ethyl)carbamoyl)phenyl)-1H-pyrazol-4-yl)-2-(2-((2,2,2-trifluoroethyl)amino)pyridin-4-yl)oxazole-4-carboxamide]", "PBMC % IRAK4 Degradation": "A (>50% degradation)"}
{"molecule": "NC(=O)c1nn(-c2ccc(C(=O)NCCOCCOCCNc3cccc4c3CN(C3CCC(=O)NC3=O)C4=O)cc2)cc1NC(=O)c1coc(-c2ccnc(NCC(F)(F)F)c2)n1", "note": "(stereo not shown) [I-117, N-(3-carbamoyl-1-(4-((2-(2-(2-((2-(2,6-dioxopiperidin-3-yl)-1-oxoisoindolin-4-yl)amino)ethoxy)ethoxy)ethyl)carbamoyl)phenyl)-1H-pyrazol-4-yl)-2-(2-((2,2,2-trifluoroethyl)amino)pyridin-4-yl)oxazole-4-carboxamide]", "PBMC % IRAK4 Degradation": "A (>50% degradation)"}
{"molecule": "NC(=O)c1nn(-c2ccc(C(=O)NCCOCCOCCOCCNc3cccc4c3C(=O)N(C3CCC(=O)NC3=O)C4=O)cc2)cc1NC(=O)c1coc(-c2ccnc(NCC(F)(F)F)c2)n1", "note": "(stereo not shown) [I-128]", "PBMC % IRAK4 Degradation": "A (>50% degradation)"}
{"molecule": "NC(=O)c1nn(-c2ccc(C(=O)NCCOCCNc3cccc4c3C(=O)N(C3CCC(=O)NC3=O)C4=O)cc2)cc1NC(=O)c1coc(-c2ccnc(NCC(F)(F)F)c2)n1", "note": "(stereo not shown) [I-130]", "PBMC % IRAK4 Degradation": "A (>50% degradation)"}
{"molecule": "NC(=O)c1nn(-c2ccc(C(=O)NCCCCCCCCCCCNc3cccc4c3C(=O)N(C3CCC(=O)NC3=O)C4=O)cc2)cc1NC(=O)c1coc(-c2ccnc(NCC(F)(F)F)c2)n1", "note": "(stereo not shown) [I-133]", "PBMC % IRAK4 Degradation": "B (>20-50% degradation)"}
{"molecule": "O=C1CCC(N2C(=O)c3cccc(NCCOCCOCCNC(=O)c4ccc(-n5cc(NC(=O)c6coc(-c7ccnc(NCC(F)(F)F)c7)n6)c(C(F)(F)F)n5)cc4)c3C2=O)C(=O)N1", "note": "(stereo not shown) [I-134]", "PBMC % IRAK4 Degradation": "C (<20% degradation)"}
{"molecule": "NC(=O)c1nn(-c2ccc(C(=O)NCCCOCCCNc3cccc4c3C(=O)N(C3CCC(=O)NC3=O)C4=O)cc2)cc1NC(=O)c1coc(-c2ccnc(NCC(F)(F)F)c2)n1", "note": "(stereo not shown) [I-141]", "PBMC % IRAK4 Degradation": "A (>50% degradation)"}
{"molecule": "NC(=O)c1nn(-c2ccc(C(=O)NCCNCCCCCNc3cccc4c3C(=O)N(C3CCC(=O)NC3=O)C4=O)cc2)cc1NC(=O)c1coc(-c2ccnc(NCC(F)(F)F)c2)n1", "note": "(stereo not shown) [I-144, N-[3-carbamoyl-1-[4-[2-[5-[[2-(2,6-dioxo-3-piperidyl)-1,3-dioxo-isoindolin-4-yl]amino]pentylamino]ethylcarbamoyl]phenyl]pyrazol-4-yl]-2-[2-(2,2,2-trifluoroethylamino)-4-pyridyl]oxazole-4-carboxamide]", "PBMC % IRAK4 Degradation": "A (>50% degradation)"}
{"molecule": "NC(=O)c1nn(C2CCN(C(=O)NCCOCCOCCNc3cccc4c3C(=O)N(C3CCC(=O)NC3=O)C4=O)CC2)cc1NC(=O)c1coc(-c2ccnc(NCC(F)(F)F)c2)n1", "note": "(stereo not shown) [I-145, N-[3-carbamoyl-1-[1-[2-[2-[2-[[2-(2,6-dioxo-3-piperidyl)-1,3-dioxo-isoindolin-4-yl]amino]ethoxy]ethoxy]ethylcarbamoyl]-4-piperidyl]pyrazol-4-yl]-2-[2-(2,2,2-trifluoroethylamino)-4-pyridyl]oxazole-4-carboxamide]", "PBMC % IRAK4 Degradation": "C (<20% degradation)"}
{"molecule": "O=C1CCC(N2C(=O)c3cccc(NCCNCCCCCNC(=O)c4ccc(-n5cc(NC(=O)c6coc(-c7ccnc(NCC8CC8)c7)n6)c(C(F)(F)F)n5)cc4)c3C2=O)C(=O)N1", "note": "(stereo not shown) [I-150]", "PBMC % IRAK4 Degradation": "A (>50% degradation)"}
{"molecule": "NC(=O)c1nn(C2CCN(C(=O)COCCOCCOCCNc3cccc4c3C(=O)N(C3CCC(=O)NC3=O)C4=O)CC2)cc1NC(=O)c1coc(-c2ccnc(NCC(F)(F)F)c2)n1", "note": "(stereo not shown) [I-152, N-[3-carbamoyl-1-[1-[2-[2-[2-[2-[[2-(2,6-dioxo-3-piperidyl)-1,3-dioxo-isoindolin-4-yl]amino]ethoxy]ethoxy]ethoxy]acetyl]-4-piperidyl]pyrazol-4-yl]-2-[2-(2,2,2-trifluoroethylamino)-4-pyridyl]oxazole-4-carboxamide]", "PBMC % IRAK4 Degradation": "C (<20% degradation)"}
{"molecule": "NC(=O)c1nn(C2CCN(C(=O)COCCOCCNc3cccc4c3C(=O)N(C3CCC(=O)NC3=O)C4=O)CC2)cc1NC(=O)c1coc(-c2ccnc(NCC(F)(F)F)c2)n1", "note": "(stereo not shown) [I-154]", "PBMC % IRAK4 Degradation": "B (>20-50% degradation)"}
{"molecule": "NC(=O)c1nn(C2CCN(C(=O)COCCOCCOCCOCCNc3cccc4c3C(=O)N(C3CCC(=O)NC3=O)C4=O)CC2)cc1NC(=O)c1coc(-c2ccnc(NCC(F)(F)F)c2)n1", "note": "(stereo not shown) [I-155]", "PBMC % IRAK4 Degradation": "C (<20% degradation)"}
{"molecule": "NC(=O)c1nn(C2CN(C(=O)COCCOCCNc3cccc4c3C(=O)N(C3CCC(=O)NC3=O)C4=O)C2)cc1NC(=O)c1coc(-c2ccnc(NCC(F)(F)F)c2)n1", "note": "(stereo not shown) [I-156]", "PBMC % IRAK4 Degradation": "C (<20% degradation)"}
{"molecule": "NC(=O)c1nn(C2CN(C(=O)COCCOCCOCCOCCNc3cccc4c3C(=O)N(C3CCC(=O)NC3=O)C4=O)C2)cc1NC(=O)c1coc(-c2ccnc(NCC(F)(F)F)c2)n1", "note": "(stereo not shown) [I-157]", "PBMC % IRAK4 Degradation": "C (<20% degradation)"}
{"molecule": "NC(=O)c1nn(C2CN(C(=O)COCCOCCOCCNc3cccc4c3C(=O)N(C3CCC(=O)NC3=O)C4=O)C2)cc1NC(=O)c1coc(-c2ccnc(NCC(F)(F)F)c2)n1", "note": "(stereo not shown) [I-158]", "PBMC % IRAK4 Degradation": "C (<20% degradation)"}
